Assay results reported in ChEMBL document CHEMBL2406948, “Skeletal rearrangement of seven-membered iminosugars: synthesis of (-)-adenophorine, (-)-1-epi-adenophorine and derivatives and evaluation as glycosidase inhibitors” (Bioorg Med Chem, 2013).

How the values were obtained:
[1] = test system: Helix pomatia; assay: Inhibition of snail beta-mannosidase at 1000 uM
[2] = test system: Aspergillus niger; assay: Inhibition of Aspergillus niger amyloglucosidase at 1000 uM
[3] = organism: Rattus norvegicus; assay: Inhibition of rat intestinal maltase alpha-glucosidase at 1000 uM
[4] = target: T1, Beta-galactosidase (Bos taurus, UniProt Q58D55); assay: Inhibition of bovine liver beta-galactosidase
T1 sequence (Q58D55 whole entry): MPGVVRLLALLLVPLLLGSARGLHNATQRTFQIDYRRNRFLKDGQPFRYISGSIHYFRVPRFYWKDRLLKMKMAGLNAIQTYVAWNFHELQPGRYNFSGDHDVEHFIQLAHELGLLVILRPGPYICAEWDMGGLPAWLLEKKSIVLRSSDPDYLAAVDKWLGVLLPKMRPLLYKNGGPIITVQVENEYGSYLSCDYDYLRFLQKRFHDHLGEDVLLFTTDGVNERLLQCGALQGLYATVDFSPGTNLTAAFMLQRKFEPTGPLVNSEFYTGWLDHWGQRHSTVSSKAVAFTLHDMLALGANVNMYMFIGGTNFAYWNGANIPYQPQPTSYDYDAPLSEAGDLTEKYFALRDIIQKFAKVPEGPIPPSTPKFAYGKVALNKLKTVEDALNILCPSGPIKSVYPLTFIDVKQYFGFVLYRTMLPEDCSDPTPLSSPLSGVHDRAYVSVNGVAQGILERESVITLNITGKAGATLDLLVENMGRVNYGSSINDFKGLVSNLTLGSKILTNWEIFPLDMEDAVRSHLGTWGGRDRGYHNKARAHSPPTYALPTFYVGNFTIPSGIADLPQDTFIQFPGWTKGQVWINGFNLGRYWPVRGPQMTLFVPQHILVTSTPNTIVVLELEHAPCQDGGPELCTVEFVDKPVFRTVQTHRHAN

[5] = target: T2, Uncharacterized protein (Sus scrofa) (UniProt I3LIR5); assay: Inhibition of pig kidney alpha, alpha trehalase at 1000 uM
T2 sequence (whole entry): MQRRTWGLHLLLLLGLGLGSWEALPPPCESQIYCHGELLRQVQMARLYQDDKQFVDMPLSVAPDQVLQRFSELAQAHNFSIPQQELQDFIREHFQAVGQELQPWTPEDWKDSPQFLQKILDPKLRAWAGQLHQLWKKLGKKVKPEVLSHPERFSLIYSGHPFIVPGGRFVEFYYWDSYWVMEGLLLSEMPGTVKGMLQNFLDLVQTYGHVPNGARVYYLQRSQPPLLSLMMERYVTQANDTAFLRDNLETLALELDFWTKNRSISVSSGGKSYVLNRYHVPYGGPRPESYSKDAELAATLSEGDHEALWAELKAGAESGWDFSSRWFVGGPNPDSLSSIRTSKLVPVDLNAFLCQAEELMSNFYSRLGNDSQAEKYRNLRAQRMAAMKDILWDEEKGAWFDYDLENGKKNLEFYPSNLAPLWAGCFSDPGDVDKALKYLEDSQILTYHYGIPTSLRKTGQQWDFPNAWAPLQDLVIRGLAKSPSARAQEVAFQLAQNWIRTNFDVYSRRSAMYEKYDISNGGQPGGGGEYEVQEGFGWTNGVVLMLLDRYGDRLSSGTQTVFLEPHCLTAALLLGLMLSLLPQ

[6] = target: T3, Glucosylceramidase (Bos taurus) (UniProt Q2KHZ8); assay: Inhibition of bovine liver beta-glucosidase at 1000 uM
T3 sequence (whole entry): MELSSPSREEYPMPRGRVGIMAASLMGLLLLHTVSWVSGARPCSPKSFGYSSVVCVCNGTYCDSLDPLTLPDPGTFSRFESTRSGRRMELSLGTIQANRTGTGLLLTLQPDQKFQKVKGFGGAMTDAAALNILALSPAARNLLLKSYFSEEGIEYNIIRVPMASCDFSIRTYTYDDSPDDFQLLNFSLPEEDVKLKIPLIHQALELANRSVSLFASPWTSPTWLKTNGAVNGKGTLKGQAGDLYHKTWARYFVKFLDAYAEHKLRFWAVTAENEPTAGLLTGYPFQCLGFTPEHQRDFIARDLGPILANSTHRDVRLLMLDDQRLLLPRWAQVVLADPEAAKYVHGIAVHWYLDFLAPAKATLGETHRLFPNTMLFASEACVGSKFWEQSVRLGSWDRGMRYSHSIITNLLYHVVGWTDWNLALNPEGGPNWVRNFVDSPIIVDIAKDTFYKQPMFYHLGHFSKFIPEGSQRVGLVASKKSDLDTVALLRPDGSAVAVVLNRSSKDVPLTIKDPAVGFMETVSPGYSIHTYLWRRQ

[7] = test system: Canavalia ensiformis; assay: Inhibition of jack beans alpha-mannosidase at 1000 uM
[8] = target: Oligo-1,6-glucosidase IMA1 (Saccharomyces cerevisiae S288c) (UniProt P53051); assay: Inhibition of yeast alpha-glucosidase at 1000 uM
[9] = target: Alpha-galactosidase (Coffea arabica) (UniProt Q42656); assay: Inhibition of coffee bean alpha-galactosidase at 1000 uM
[10] = test system: Penicillium decumbens; assay: Inhibition of Penicillium decumbens alpha-L-rhamnosidase at 1000 uM
[11] = test system: Aspergillus niger; assay: Inhibition of Aspergillus niger beta-glucosidase at 1000 uM
[12] = target: T4, Tissue alpha-L-fucosidase (Bos taurus) (UniProt Q2KIM0); assay: Inhibition of bovine kidney alpha-L-fucosidase at 1000 uM
T4 sequence (whole entry): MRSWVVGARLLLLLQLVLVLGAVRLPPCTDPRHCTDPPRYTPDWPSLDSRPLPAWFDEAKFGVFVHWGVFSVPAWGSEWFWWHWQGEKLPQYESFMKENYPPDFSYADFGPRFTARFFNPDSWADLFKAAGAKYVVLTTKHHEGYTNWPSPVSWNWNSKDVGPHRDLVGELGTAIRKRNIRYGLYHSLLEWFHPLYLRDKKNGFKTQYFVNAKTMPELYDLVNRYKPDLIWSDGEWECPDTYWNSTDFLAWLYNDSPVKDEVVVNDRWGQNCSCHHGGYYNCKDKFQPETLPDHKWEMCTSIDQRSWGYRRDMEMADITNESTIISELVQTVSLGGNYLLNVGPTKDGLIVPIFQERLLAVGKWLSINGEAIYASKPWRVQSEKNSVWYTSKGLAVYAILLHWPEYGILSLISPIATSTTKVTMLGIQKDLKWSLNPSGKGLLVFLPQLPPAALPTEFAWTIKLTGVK

[13] = test system: Prunus dulcis; assay: Inhibition of almond beta-glucosidase at 1000 uM
[14] = Inhibition of rice alpha-glucosidase; design: species or system Oryza sativa
[15] = target: T5, Tissue alpha-L-fucosidase (Bos taurus, UniProt Q2KIM0); assay: Inhibition of bovine kidney alpha-L-fucosidase
T5 sequence (Q2KIM0 whole entry): T4 sequence (whole entry)

Alpha-galactosidase (Coffea arabica), sequence (Q42656 16-378 limits assumed): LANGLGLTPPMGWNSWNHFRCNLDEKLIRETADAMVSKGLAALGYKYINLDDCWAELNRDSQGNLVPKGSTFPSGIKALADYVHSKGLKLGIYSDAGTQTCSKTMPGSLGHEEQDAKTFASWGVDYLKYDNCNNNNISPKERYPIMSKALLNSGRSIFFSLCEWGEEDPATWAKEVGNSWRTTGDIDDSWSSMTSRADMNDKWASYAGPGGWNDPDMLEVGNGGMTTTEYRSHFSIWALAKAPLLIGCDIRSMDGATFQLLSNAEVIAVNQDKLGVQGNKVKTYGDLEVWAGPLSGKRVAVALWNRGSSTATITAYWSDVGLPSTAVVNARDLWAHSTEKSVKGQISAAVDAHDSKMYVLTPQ
Oligo-1,6-glucosidase IMA1 (Saccharomyces cerevisiae S288c), sequence (P53051 whole entry): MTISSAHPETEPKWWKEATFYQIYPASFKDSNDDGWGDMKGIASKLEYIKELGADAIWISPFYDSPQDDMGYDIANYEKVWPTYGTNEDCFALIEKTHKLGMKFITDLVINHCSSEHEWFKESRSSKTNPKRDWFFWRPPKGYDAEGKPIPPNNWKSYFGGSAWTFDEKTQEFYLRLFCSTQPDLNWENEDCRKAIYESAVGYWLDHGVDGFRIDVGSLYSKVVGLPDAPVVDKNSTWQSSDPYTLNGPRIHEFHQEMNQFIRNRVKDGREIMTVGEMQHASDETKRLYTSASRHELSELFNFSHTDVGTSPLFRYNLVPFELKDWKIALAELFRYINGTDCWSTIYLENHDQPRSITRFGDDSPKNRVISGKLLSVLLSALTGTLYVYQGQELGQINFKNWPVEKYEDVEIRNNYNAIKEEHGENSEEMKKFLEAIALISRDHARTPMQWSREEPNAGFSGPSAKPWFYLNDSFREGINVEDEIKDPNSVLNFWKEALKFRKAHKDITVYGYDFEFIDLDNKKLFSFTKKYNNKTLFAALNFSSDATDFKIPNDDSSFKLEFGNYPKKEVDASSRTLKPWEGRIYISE

inhibition [1] | inhibition [2] | inhibition [3] | IC50 [4] | inhibition [5] | inhibition [6] | inhibition [7] | inhibition [8] | inhibition [9] | inhibition [10] | inhibition [11] | inhibition [12] | inhibition [13] | IC50 [14] | Ki [15] | SMILES
3.6% | 0% | 0% | 541 µM | 0% | 6% | 1.6% | 0% | 46% | 14.8% | 9.1% | 0% | 0% | 839 µM | – | CCC[C@@H]1NC[C@@H](O)[C@@H](O)[C@H](O)[C@H]1O
– | – | – | – | – | – | – | – | – | – | – | – | – | – | 4.6 µM | O[C@H]1[C@H](O)[C@@H](O)CNC[C@H]1O
